Test results reported in BigSolDB 2.1.

## CCOc1ccccc1C(N)=O
In acetonitrile, 293.15 K
  solubility (mole fraction): 0.00709
In acetonitrile, 298.15 K
  solubility (mole fraction): 0.0091
In acetonitrile, 303.15 K
  solubility (mole fraction): 0.0123
In acetonitrile, 308.15 K
  solubility (mole fraction): 0.0167
In acetonitrile, 313.15 K
  solubility (mole fraction): 0.022
In acetonitrile, 318.15 K
  solubility (mole fraction): 0.0285
In acetonitrile, 323.15 K
  solubility (mole fraction): 0.0377
In ethanol, 293.15 K
  solubility (mole fraction): 0.0121
In ethanol, 298.15 K
  solubility (mole fraction): 0.0162
In ethanol, 303.15 K
  solubility (mole fraction): 0.0198
In ethanol, 308.15 K
  solubility (mole fraction): 0.0252
In ethanol, 313.15 K
  solubility (mole fraction): 0.0313
In ethanol, 318.15 K
  solubility (mole fraction): 0.0392
In ethanol, 323.15 K
  solubility (mole fraction): 0.0472
In isopropanol, 293.15 K
  solubility (mole fraction): 0.0097
In isopropanol, 298.15 K
  solubility (mole fraction): 0.0125
In isopropanol, 303.15 K
  solubility (mole fraction): 0.0155
In isopropanol, 308.15 K
  solubility (mole fraction): 0.0189
In isopropanol, 313.15 K
  solubility (mole fraction): 0.024
In isopropanol, 318.15 K
  solubility (mole fraction): 0.0304
In isopropanol, 323.15 K
  solubility (mole fraction): 0.0391
In methanol, 293.15 K
  solubility (mole fraction): 0.016
In methanol, 298.15 K
  solubility (mole fraction): 0.02
In methanol, 303.15 K
  solubility (mole fraction): 0.0252
In methanol, 308.15 K
  solubility (mole fraction): 0.0306
In methanol, 313.15 K
  solubility (mole fraction): 0.0392
In methanol, 318.15 K
  solubility (mole fraction): 0.0484
In methanol, 323.15 K
  solubility (mole fraction): 0.0596
